Here are results for seven compounds from US12466840B2, “Small molecule inhibitors of KRAS proteins” (Merck Sharp & Dohme LLC, priority 2023, dated 2025).

Experiment [1] addresses NRAS (Homo sapiens (Human), UniProt P01111). Kind of experiment: SOS-catalyzed nucleotide exchange assay (GNE), NRAS-WT. To be noted: TR-FRET, 60 min preincubation. In kind it is biochemical. The source says:
(§1) Procedure for SOS-Catalyzed Nucleotide Exchange Assay for KRAS-WT, G12C/D/V/A/R/S, G13D, Q61H, HRAS-WT, and NRAS-WT
(§2) Recombinant KRAS-G12C protein used in this assay has an additional triple mutation (C51S/C80L/C118S). Whereas KRAS-WT, G12D/V/A/S/R, G13D, Q61H, HRAS and NRAS are in context of their WT protein sequence background. Specifically, the SOS-catalyzed nucleotide exchange assay utilizes a preformed TR-FRET complex containing a specific biotinylated RAS protein (KRAS-WT, G12C/V/D/A/S/R, G13D, Q61H, HRAS-WT, NRAS-WT; described above) with Bodipy-GDP, and Terbium-streptavidin. Compounds are preincubated with this complex for 60 minutes. Subsequently, recombinant human SOS protein and unlabeled GTP are added to initiate the exchange reaction. Small molecule inhibitors stabilize the Bodipy-GDP complex whereas the untreated protein rapidly exchanges Bodipy-GDP for unlabeled GTP resulting in reduced TR-FRET signal.
(§3) To assemble the preformed TR-FRET complexes, each biotinylated RAS protein is diluted to 2 μM in an EDTA Buffer (20 mM HEPES pH 7.5, 50 mM sodium chloride, 10 mM EDTA, and 0.01% Tween) and incubated at room temperature for one hour. This mixture is then further diluted to 90 nM in an Assay Buffer (20 mM HEPES pH 7.5, 150 mM sodium chloride, 10 mM magnesium chloride, and 0.005% Tween) containing 15 nM of Terbium-Streptavidin (Invitrogen, catalog #PV3577) and 900 nM of Bodipy-GDP (Invitrogen, catalog #G22360) and incubated at room temperature for six hours. It should be noted that this preformed TR-FRET complex for each of the RAS protein were made ahead of time, aliquoted and stored at −80° C. until the day of the experiment.
(§4) Each test compound (10 mM stock in DMSO) is diluted in DMSO to make a final-10-point, 3-fold dilution and is acoustically dispensed into a 384-well assay plate (Corning, catalog #3820) using an Echo 550 (Labcyte). Each well of the assay plate receives 3 μL of a specific 3×RAS preformed TR-FRET complex and 3 μL of Assay Buffer and is incubated at room temperature for 60 minutes (preincubation time). Each well then receives 3 μL of 3× recombinant human SOS protein and GTP (Sigma, G8877) in Assay Buffer and is incubated at room temperature for 30 minutes (G13D), 60 minutes (KRAS WT/G12C/D, H/NRAS) or 90 minutes for G12A/R/S/V and Q61H. The final reaction in each well of 9 μL consists of 3 mM GTP, specific Ras and SOS proteins in the following concentrations: KRAS-G12C/SOS=3 nM/40 nM, KRAS-WT and G12D/SOS=1 nM/40 nM, KRAS-G12V/SOS=1.25 nM/160 nM, KRAS-G12A/S/SOS=1 nM/160 nM, KRAS-G12R/SOS=1 nM/320 nM, KRAS-Q61H/SOS=1 nM/320 nM, KRAS-G13D/SOS=1.25 nM/[…], HRAS-WT and NRAS-WT=1.25 nM/40 nM.
(§5) The time-resolved fluorescence resonance energy transfer (TR-FRET) signal is measured on an Envision (PerkinElmer) plate reader: Excitation filter=340 nm; emission1=495 nm; emission2=520 nm; dichroic mirror=D400/D505; delay time=[…]. The signal of each well is determined as the ratio of the emission at 520 nm to that at 495 nm. Percent effect of each well is determined after normalization to control wells containing DMSO (no effect) or a saturating concentration of inhibitor (max effect). The apparent effect as a function of compound concentration is fit to a four-parameter logistic equation.
On the technique in general: TR-FRET usually uses a lanthanide donor and a delayed reading to cut background.

In experiment [2] the target is KRAS G12S (Homo sapiens (Human), UniProt P01116, G12S). Nature of the experiment: SOS-catalyzed nucleotide exchange assay (GNE), KRAS G12S. In kind it is biochemical. To be noted: TR-FRET, 60 min preincubation.
Source text: as §1, §2, §3, §4, §5

Experiment [3] concerns AsPC-1 cells (homozygous KRAS-G12D). Nature of the experiment: Cellular phospho-ERK assay, AsPC-1 cells. In kind it is cell-based. To be noted: p-ERK vs. total ERK, read-out: AsPC1 pERK IC50. How it is done: Procedure for Cellular Phospho-ERK Assay in KRAS Wild Type and Mutant (G12D, G12V) Cell Lines
MKN-1 cells (JCRB JCRB0252) containing amplified wild-type KRAS, were cultured in growth medium that contains RPMI 1640-GlutaMAX™-I (ThermoFisher Scientific 61870) containing 10% heat inactivated fetal bovine serum (ThermoFisher Scientific 10091148), 1 mM sodium pyruvate and 10 mM HEPES. AsPC-1 cells (ATCC® CRL-1682™), containing homozygous KRAS-G12D activating mutation, were cultured in T150 flask in growth medium (RPMI medium 1640-GlutaMAX™-I (ThermoFisher Scientific 61870) containing 10% fetal bovine serum (ThermoFisher Scientific 10091148)). SW620 cells (ATCC® CRL-227™) containing homozygous KRAS-G12V activating mutation, were cultured in growth medium that contains RPMI 1640-GlutaMAX™-I (ThermoFisher Scientific 61870) containing 10% heat inactivated fetal bovine serum (ThermoFisher Scientific 10091148).
Cells for the assay were harvested in growth medium after TrypLE (ThermoFisher scientific 12604021) digestion and were seeded in a 384-well collagen coated cell culture plate (Corning 356702) at a density of 10,000-15,000 cells/[…]/well, and incubated at 37° C., 5% CO2 overnight. The compound (with 10 mM stock concentration) dose-response titrations were prepared [30 μM final ERK detection assay concentration and 1:3 dilutions, 10-point dose response] and appropriate amounts (270 nL) of test compounds were dispensed in a 384-well intermediate plate using an Echo 550 liquid handler. 30 μL/well of RPMI medium 1640-GlutaMAX™-I was added to the intermediate plate and the contents of the intermediate plate (10 μL/well) were then transferred to the 384-well collagen coated cell culture plate, which was incubated at 37° C., 5% CO2 for 2 h. After removal of medium from the collagen coated cell culture plate, cells were lysed in lysis buffer from Alpha SureFire® Ultra™ Multiplex p-ERK and total ERK assay kit (PerkinElmer MPSU-PTERK) containing Halt™ Protease and Phosphatase inhibitor cocktail (ThermoFisher Scientific 78446) at room temperature with constant shaking at 300 rpm for 30 minutes. The cell lysates were then transferred to an OptiPlate-384 plate (PerkinElmer 6005620), and the phosphorylation of ERK (p-ERK) and total ERK levels were detected by Alpha SureFire® Ultra™ Multiplex p-EEK kit and total ERK assay kit (PerkinElmer MPSU-PTERK) following the manufacturer's protocol. Assay plates were read on a EnVision Multimode Plate Reader (PerkinElmer), and the ratio of p-ERK vs. total ERK in each well was used as the final readout. Dose response curves were analyzed using a 4-parameter logistic model to calculate IC50 values using Spotfire software.

Read-outs that look alike come from different tables or passages of the source. Bounds are passed on as bounds.

Sequence of KRAS G12S (P01116 other isoform, or with tags, fused parts or gaps G12S (already in the parent)): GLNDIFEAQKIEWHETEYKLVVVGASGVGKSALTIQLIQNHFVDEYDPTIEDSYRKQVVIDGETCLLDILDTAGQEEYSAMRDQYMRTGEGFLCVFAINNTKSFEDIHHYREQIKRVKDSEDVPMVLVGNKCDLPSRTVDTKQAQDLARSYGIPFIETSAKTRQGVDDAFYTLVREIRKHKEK
Sequence of NRAS (P01111 other isoform, or with tags, fused parts or gaps): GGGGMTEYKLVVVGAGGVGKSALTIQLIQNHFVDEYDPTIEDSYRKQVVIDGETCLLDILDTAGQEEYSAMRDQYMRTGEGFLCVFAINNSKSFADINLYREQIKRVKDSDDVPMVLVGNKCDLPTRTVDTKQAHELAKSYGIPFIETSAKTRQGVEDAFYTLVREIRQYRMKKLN

Turning to `F/C=C1/CN2CCC[C@@]2(COc2nc3c4c(nc(-c5c(C6CC6)c(Cl)cc6[nH]ncc56)c(F)c4n2)OC[C@@H]2COCCCN32)C1` [Ex-1, (8aS)-5-(6-chloro-5-cyclopropyl-1H-indazol-4-yl)-4-fluoro-2-(((S,Z)-2-(fluoromethylene)tetrahydro-1H-pyrrolizin-7a(5H)-yl)methoxy)-8a,9,12,13-tetrahydro-8H,11H-7,10-dioxa-1,3,6,13a-tetraazanaphtho[1,8-ab]heptalene], the IC50 is greater than 11100 nM in experiment [1], less than 0.69 nM in experiment [2] and 5.1 nM in experiment [3] (2 h).

On to `CCc1c(F)ccc2cc3[nH]ncc3c(-c3nc4c5c(nc(OC[C@@]67CCCN6C[C@H](F)C7)nc5c3F)N3CCCOC[C@H]3CO4)c12` [Ex-2, (8aS)-5-(5-ethyl-6-fluoro-1H-benzo[f]indazol-4-yl)-4-fluoro-2-(((2R,7aS)-2-fluorotetrahydro-1H-pyrrolizin-7a(5H)-yl)methoxy)-8a,9,12,13-tetrahydro-8H,11H-7,10-dioxa-1,3,6,13a-tetraazanaphtho[1,8-ab]heptalene], for which the IC50 in experiment [1] is 7020 nM; in experiment [2] it was less than 0.69 nM; in experiment [3] (2 h), 7.4 nM.

On to `Fc1c(-c2c(C3CC3)c(Cl)cc3[nH]ncc23)nc2c3c(nc(OC[C@@]45CCCN4C[C@H](F)C5)nc13)N1CCCOC[C@H]1CO2` [Ex-3, (8aS)-5-(6-chloro-5-cyclopropyl-1H-indazol-4-yl)-4-fluoro-2-(((2R,7aS)-2-fluorotetrahydro-1H-pyrrolizin-7a(5H)-yl)methoxy)-8a,9,12,13-tetrahydro-8H,11H-7,10-dioxa-1,3,6,13a-tetraazanaphtho[1,8-ab]heptalene], for which the IC50 in experiment [3] (Homo sapiens, ASPC1, 2 h) came out at 15 nM.

On to `CCc1c(F)ccc2cc3[nH]ncc3c(-c3nc4c5c(nc(OC[C@@]67CCCN6C/C(=C\F)C7)nc5c3F)N3CCCOC[C@H]3CO4)c12` [Ex-4, (8aS)-5-(5-ethyl-6-fluoro-1H-benzo[f]indazol-4-yl)-4-fluoro-2-(((S,Z)-2-(fluoromethylene)tetrahydro-1H-pyrrolizin-7a(5H)-yl)methoxy)-8a,9,12,13-tetrahydro-8H,11H-7,10-dioxa-1,3,6,13a-tetraazanaphtho[1,8-ab]heptalene], for which the IC50 is 2820 nM in experiment [1]; less than 0.69 nM in experiment [2]; 2.2 nM in experiment [3] (Homo sapiens, ASPC1, 2 h).

Turning to `F/C=C1\CN2CCC[C@@]2(COc2nc3c4c(nc(-c5c(C6(F)CC6)c(Cl)cc6[nH]ncc56)c(F)c4n2)OC[C@@H]2COCCCN32)C1` [Ex-5, (8aS)-5-(6-chloro-5-(1-fluorocyclopropyl)-1H-indazol-4-yl)-4-fluoro-2-(((S,Z)-2-(fluoromethylene)tetrahydro-1H-pyrrolizin-7a(5H)-yl)methoxy)-8a,9,12,13-tetrahydro-8H,11H-7,10-dioxa-1,3,6,13a-tetraazanaphtho[1,8-ab]heptalene], the IC50 in experiment [1] was greater than 11100 nM; in experiment [2], 0.77 nM; in experiment [3] (Homo sapiens, ASPC1, 2 h) it was 3.2 nM.

Take `CCc1c(F)ccc2cc3[nH]nc(C)c3c(-c3nc4c5c(nc(OC[C@@]67CCCN6C[C@H](F)C7)nc5c3F)N3CCCOC[C@H]3CO4)c12` [Ex-6, (8aS)-5-(5-ethyl-6-fluoro-3-methyl-1H-benzo[f]indazol-4-yl)-4-fluoro-2-(((2R,7aS)-2-fluorotetrahydro-1H-pyrrolizin-7a(5H)-yl)methoxy)-8a,9,12,13-tetrahydro-8H,11H-7,10-dioxa-1,3,6,13a-tetraazanaphtho[1,8-ab]heptalene]: the IC50 in experiment [1] turned out to be 10000 nM; in experiment [2] it was 1.2 nM; in experiment [3] (Homo sapiens, ASPC1, 2 h), 9.5 nM.

Take `CCc1c(F)ccc2cc3[nH]nc(C)c3c(-c3nc4c5c(nc(OC[C@@]67CCCN6C/C(=C\F)C7)nc5c3F)N3CCCOC[C@H]3CO4)c12` [Ex-7, (8aS)-5-(5-ethyl-6-fluoro-3-methyl-1H-benzo[f]indazol-4-yl)-4-fluoro-2-(((S,Z)-2-(fluoromethylene)tetrahydro-1H-pyrrolizin-7a(5H)-yl)methoxy)-8a,9,12,13-tetrahydro-8H,11H-7,10-dioxa-1,3,6,13a-tetraazanaphtho[1,8-ab]heptalene]: the values for the IC50 in experiment [1], in experiment [2] and in experiment [3] (2 h) were 8980 nM, 1.3 nM and 7.1 nM, respectively.

Broadly, the IC50 is the concentration needed to halve the response being measured.
